Results on 1 compound are retold here after ChEMBL document CHEMBL1150959 (J Nat Prod, 1998).

Activity calls are given as the source filed them. The calls are words filed in the database; no cut-off is given here.

A short description of assay [1]: Ratio of IC50 for COX2 to IC50 for COX1.
Assay [2] has as its target Prostaglandin G/H synthase 1 (Bos taurus) (UniProt O62698). The assay is described as follows: Inhibition of COX1-catalyzed prostaglandin biosynthesis at 100 ug/ml without preincubation.
Assay [3] shares this target. Put plainly: Inhibition of COX1-catalyzed prostaglandin biosynthesis 10 mins of preincubation.
Assay [4] has the same target. Put plainly: Inhibition of COX1-catalyzed prostaglandin biosynthesis at 200 ug/ml without preincubation. To be noted: TDE = time-dependent effect.

Sequence of Prostaglandin G/H synthase 1 (Bos taurus) (O62698 whole entry, looked up): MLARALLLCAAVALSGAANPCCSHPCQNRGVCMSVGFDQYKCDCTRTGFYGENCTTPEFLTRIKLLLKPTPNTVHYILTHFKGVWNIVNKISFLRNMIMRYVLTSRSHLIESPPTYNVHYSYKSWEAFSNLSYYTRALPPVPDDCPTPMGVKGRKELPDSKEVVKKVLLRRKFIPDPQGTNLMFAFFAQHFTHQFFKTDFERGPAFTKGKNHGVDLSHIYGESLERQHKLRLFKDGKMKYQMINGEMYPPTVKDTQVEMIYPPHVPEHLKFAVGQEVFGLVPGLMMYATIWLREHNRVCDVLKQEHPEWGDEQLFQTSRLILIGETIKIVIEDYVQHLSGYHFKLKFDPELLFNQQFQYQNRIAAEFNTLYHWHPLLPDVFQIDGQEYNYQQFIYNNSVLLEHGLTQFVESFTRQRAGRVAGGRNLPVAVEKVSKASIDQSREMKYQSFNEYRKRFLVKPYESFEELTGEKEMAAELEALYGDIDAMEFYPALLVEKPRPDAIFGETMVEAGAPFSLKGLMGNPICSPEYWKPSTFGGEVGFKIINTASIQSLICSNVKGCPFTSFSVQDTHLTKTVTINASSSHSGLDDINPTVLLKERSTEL

The term IC50 denotes the concentration at which inhibition is half-maximal. A lower IC50 goes with greater potency. Regarding `C[C@H]1[C@H](C)CC[C@]2(C(=O)O)CC[C@]3(C)C(=CC[C@@H]4[C@@]5(C)CC[C@H](O)C(C)(C)[C@@H]5CC[C@]43C)[C@H]12` [URSOLIC ACID], the Ratio IC50 in assay [1] was found to be 0.6. In addition, the outcome in assay [2] was Active. The IC50 in assay [3] turned out to be 210 µM. Besides, in assay [4], the Activity result was “tde”.
